{"source": "patent US20240285730A1", "about": "“COMPOSITIONS AND METHODS FOR THE TREATMENT OF GRAFT VERSUS HOST DISEASE” (VectivBio AG, priority 2021, published 2024)", "key": {"[1]": {"test_system": "cytarabine-induced toxicity", "experiment": "Apraglutide dose-response study with cytarabine chemotherapy", "format": "in vivo, BALB/cJ female mice", "settings": "for polymorphonuclear (PMN) cell count: cytarabine alone or combined with hGLP-2 or apraglutide", "method": "The apraglutide dose-dependent impact on the immunosuppressive effect of cytarabine was evaluated. The effect of cytarabine treatment on polymorphonuclear (PMN) cell count was determined (FIG. 20). […] In a separate study during which animals treated with cytarabine alone or in combination with apraglutide initiated before cytarabine (Days-4 to +12) were allowed to survive for 4 additional weeks."}, "[2]": {"test_system": "fecal microbiota (Bacteroidetes, Firmicutes)", "experiment": "Fecal microbiota composition during cytarabine chemotherapy (16S taxonomical meta-sequencing)", "format": "in vivo, Balb/c mice", "settings": "for changes in the composition of bacterial species (Bacteroidetes, Firmicutes): Days 0 to 18"}, "human leukemia cells": {"test_system": "human leukemia cells", "settings": "vs vehicle", "protocol": "In a first experiment, cytarabine's anti-tumor effects were assessed in leukemic NOD/SCID mice (FIG. 11a). Apraglutide or vehicle was administered on Days −4 to 4. Cytarabine or vehicle was administered on Days 0-4. Bone marrow and spleen samples were collected on Day 7 and percentage of hCD45+ cells determined."}, "[3]": {"test_system": "acute gastrointestinal GvHD mouse model", "experiment": "Acute GvHD mouse model, first experiment (8.5 Gy irradiation + allogeneic bone marrow/spleen cell transplant)", "format": "in vivo, BALB/cJ male mice", "method": "Mouse #3 (Group A), #13 (Group B) and #20 (Group B) were administered the cells by subcutaneous injection rather than intravenously. Mouse #5 (Group B) and #10 (Group B) received half the cells by intravenous injection and half by subcutaneous injection.\nVarious histological parameters of the jejunum were also measured, including single cell necrosis levels, necrosis of all crypts, shortening of villi, cryptal hyperplasia (regenerative), cell infiltrate, and cryptal abscess. These histological parameters were graded on a standard histological grading system (1 to 3). […] These indicate that the administration of apraglutide has a protective effective against jejunal mucosal damages induced by irradiation and GvHD."}, "blood cell count": {"test_system": "blood cell count", "experiment": "Cytarabine-induced immunosuppression (blood cell counts)", "format": "in vivo, Balb/c mice", "settings": "4 weeks after the end of treatment", "method": "In a second experiment, apraglutide's effect on the ability of cytarabine to induce immunosuppression was assessed. The experiment included three groups of Balb/c mice: (A) vehicle; (B) cytarabine on Days 5-9; (C) cytarabine on Days 5-9, concomitant apraglutide on Days 5-18. RBC, platelets, WBC, NEU and LYMPH were assessed. A cohort was allowed to survive for 4 weeks to assess the effect of apraglutide on immunosuppression recovery (FIG. 12)."}, "[4]": {"test_system": "human peripheral blood mononuclear cell (hPBMC) engraftment", "experiment": "Engraftment of human PBMC in total-body-irradiated NOG mice", "format": "in vivo, immunodeficient (NOG) mice", "method": "Engraftment rate was determined through CD45 expression in blood, bone marrow and spleen."}, "[5]": {"test_system": "acute GVHD-induced intestinal damage", "experiment": "TBI-induced intestinal damage with allogeneic transplantation (Example 2, second experiment)", "protocol": "In a second experiment, TBI-induced intestinal damaged BALB/cJ mice received allogeneic transplantation and were treated with apraglutide (3.3 mg/kg) or vehicle on Days −9, −7, −5, −3-1, +1, +3, +5, +7. Intestinal damage indicative of GvHD (histological changes, length, hemorrhage, inflammation), body weight, and survival were assessed."}, "WBC, NEU and LYMPH": {"test_system": "WBC, NEU and LYMPH", "experiment": "Melphalan-induced immunosuppression (WBC, NEU, LYMPH)", "format": "in vivo, Balb/c mice", "method": "In a third experiment, the effect of apraglutide on melphalan-induced immunosuppression was assessed (FIG. 13). Three groups of Balb/c mice were included: (A) vehicle; (B) melphalan on Day 9; (C) melphalan on Day 9, apraglutide pre-treatment on Days 1, 3, 5, 7 and continued as co-administration on Days 9, 11, and 13. WBC, NEU and LYMPH were assessed."}, "[6]": {"test_system": "chemotherapy-induced gastrointestinal (GI) damage", "experiment": "Chemotherapy-induced (cytarabine or melphalan) intestinal damage in mice", "format": "in vivo, Balb/c mice", "method": "In a first experiment, 4 groups of Balb/c mice: (A) vehicle only; (B) cytarabine on Days 5-9, no apraglutide given; (C) cytarabine on Days 5-9; concomitant apraglutide on Days 5-18; (D) cytarabine on Days 5-9; pre-treatment apraglutide on Days 1, 3, and continued as concomitant treatment on Days 5, 8, 11, 14, and 17. Treatment groups were dosed with 30 mg/kg cytarabine and/or apraglutide 3.3 mg/kg.\nIn a second experiment, 3 treatment groups of Balb/c mice: (A) vehicle only; (B) melphalan on Day 9, no apraglutide; (C) melphalan on Day 9; pre-treatment apraglutide on Days 1, 3, 5, 7 and continued as concomitant treatment on Days 9, 11, and 13.\nIn both models, mice that received vehicle without any treatment served as controls. Intestinal tissue histology, body weight, survival, and plasma citrulline, a marker of total mucosal mass and intestinal growth, was assessed in both models."}, "[7]": {"test_system": "acute gastrointestinal GvHD mouse model", "experiment": "Acute GvHD mouse model, second experiment (7.0 Gy irradiation + allogeneic transplant)", "protocol": "In a second experiment BALB/cJ male mice were separated into three groups, Group A, Group B and Group C. Groups A and B consisted of 10 mice and Group C consisted of 5 mice.\nMice in Group A received subcutaneous injections of apraglutide in an amount of 3 mg/kg/mouse (administered in 300 μl of vehicle), every second day from Day −9 to Day +7 (Days: −9, −7, −5, −3-1, +1, +3, +5, +7).\nMice in Group B received subcutaneous injections of 300 μl of vehicle control every second day starting from Day −9 to Day +7 (Days: −9, −7, −5, −3−1, +1, +3, +5, +7).\nMice in Group C received subcutaneous injections of 300 μl of vehicle control every second day starting from Day −9 to Day +7 (Days: −9, −7, −5, −3−1, +1, +3, +5, +7).\nOn Day −1 of the experiment, all mice in Groups A and B were irradiated with 7.0 Gy using an linac x-ray source. Group C was not irradiated but were injected with the vehicle only.\nOn Day 0 of the experiment, bone marrow and T cells from C57BL/6J mice were collected, prepared and transplanted into the mice of Group A and Group B. Each mouse in Group A and Group B was intravenously injected with 10 million bone marrows cells extracted from the femurs of the C57BL/6J mice and 2.5 million spleen cells extracted from the C57BL/6J mice.\nMorbidity, mortality, body weight, clinical signs (diarrhea, appearance and behavior), length of intestinal segments, and histopathology of the intestine, skin, spleen and liver were monitored in the mice of Group A, Group B and Group C. All mice were sacrificed at Day +14 at the latest."}, "[8]": {"settings": "apraglutide 3 mg/kg s.c., histological grading 1 to 3, vs vehicle"}, "[9]": {"settings": "apraglutide 3.3 mg/kg vs vehicle"}}, "note": "Entries after “also recorded” stand apart in the source; their conditions may differ. Square brackets hold non-standard residues; d marks the D form. Peptide text beside a SMILES is read from it. ξ: configuration not given here. Ile(3ξ) = CCC(C)[C@H](N)C(=O)O; Thr(3ξ) = CC(O)[C@H](N)C(=O)O; Nle = CCCC[C@H](N)C(=O)O", "data": [{"smiles": "Nc1ccn([C@@H]2O[C@H](CO)[C@@H](O)[C@@H]2O)c(=O)n1", "note": "[Cytarabine only, Cytarabine]", "values": [{"measurement": "polymorphonuclear (PMN) cell count", "setting": "[1]", "result": "depleted PMN counts"}, {"measurement": "Bacteroidetes, mean (Table 1b)", "setting": "[2]; Day 0", "result": 18.3}, {"measurement": "Firmicutes, mean (Table 1b)", "setting": "[2]; Day 0", "result": 78.7}, {"measurement": "unclassified phylum, mean (Table 1b)", "setting": "[2]; Day 0", "result": 1.3}, {"measurement": "Bacteroidetes, mean (Table 1b)", "setting": "[2]; Day 18", "result": 48.7}, {"measurement": "Firmicutes, mean (Table 1b)", "setting": "[2]; Day 18", "result": 49.6}, {"measurement": "unclassified phylum, mean (Table 1b)", "setting": "[2]; Day 18", "result": 1.2}, {"measurement": "changes in the composition of bacterial species (Bacteroidetes, Firmicutes)", "setting": "[2]", "result": "increasing the Bacteroidetes population and decreasing the proportion of Firmicutes bacteria"}, {"measurement": "reduction in human leukemia cells", "setting": "human leukemia cells", "result": "significantly greater than vehicle"}]}, {"smiles": "CCCC[C@H](NC(=O)[C@H](CCC(=O)O)NC(=O)[C@H](CC(=O)O)NC(=O)[C@H](CO)NC(=O)[C@H](Cc1ccccc1)NC(=O)[C@H](CO)NC(=O)CNC(=O)[C@H](CC(=O)O)NC(=O)CNC(=O)[C@@H](N)Cc1c[nH]cn1)C(=O)N[C@H](Cc1ccccc1)C(=O)N[C@H](C(=O)N[C@H](C(=O)N[C@@H](CC(C)C)C(=O)N[C@@H](CC(=O)O)C(=O)N[C@@H](CC(C)C)C(=O)N[C@@H](CC(C)C)C(=O)N[C@@H](C)C(=O)N[C@@H](C)C(=O)N[C@@H](CCCNC(=N)N)C(=O)N[C@@H](CC(=O)O)C(=O)N[C@@H](Cc1ccccc1)C(=O)N[C@H](C(=O)N[C@@H](CC(N)=O)C(=O)N[C@@H](Cc1c[nH]c2ccccc12)C(=O)N[C@@H](CC(C)C)C(=O)N[C@H](C(=O)N[C@@H](CCC(N)=O)C(=O)N[C@H](C(=O)N[C@@H](CCCCN)C(=O)N[C@H](C(=O)N[C@H](C(=O)N[C@@H](CC(=O)O)C(N)=O)C(C)O)C(C)CC)C(C)O)C(C)CC)C(C)CC)C(C)CC)C(C)O", "note": "(stereo partly drawn) [apraglutide] (H-HGDGSFSDE[Nle][dF][Thr(3ξ)][Ile(3ξ)]LDLLAARDF[Ile(3ξ)]NWL[Ile(3ξ)]Q[Thr(3ξ)]K[Ile(3ξ)][Thr(3ξ)]D-NH2)", "values": [{"measurement": "colon length", "setting": "[3]; 8.5 Gy + C57BL/6J bone marrow/spleen cells, apraglutide 3 mg/kg s.c. every second day Day −9 to +7, vs vehicle group", "result": "increased colon lengths that were nearly the same as the control mice"}, {"measurement": "mean severity score of the regenerative cryptal hyperplasia (jejunum)", "setting": "[3]; [8]", "result": "slightly increased"}, {"measurement": "overall mean severity score of mucosal degenerative/inflammatory changes in the jejunum", "setting": "[3]; [8]", "result": "slightly decreased"}, {"measurement": "recovery of hematological parameters", "setting": "blood cell count", "result": "did not impact"}, {"measurement": "improvement in animal survival vs cytarabine alone", "setting": "[1]; all apraglutide-treated groups", "result": "statistically significant"}, {"measurement": "plasma citrulline concentrations", "setting": "[1]; apraglutide 0.33 mg/kg and 1.1 mg/kg with cytarabine vs cytarabine alone", "result": "improvement in citrulline concentrations"}, {"measurement": "polymorphonuclear (PMN) cell count", "setting": "[1]", "result": "not reversed"}, {"measurement": "initial weight loss", "setting": "[1]; cytarabine combined with 0.11 mg/kg apraglutide or hGLP-2 (0.60 mg/kg twice daily)", "result": "did not decrease initial weight loss"}, {"measurement": "engraftment rate in blood, spleen and bone marrow (CD45 expression)", "setting": "[4]; apraglutide 3.3 mg/kg Days −6 to 18, TBI 1.44 Gy, hPBMC 3×10^7", "result": "not affected"}, {"measurement": "hCD45+ cells infiltration in the intestinal wall", "setting": "[4]; apraglutide vs vehicle", "result": "no difference"}, {"measurement": "lymphocyte engraftment", "setting": "[5]; apraglutide 3.3 mg/kg Days −9 to +7", "result": "successfully achieved"}, {"measurement": "median survival", "setting": "[5]; [9]", "result": "similar"}, {"measurement": "post-mortem histological examination, mucosal degenerative/inflammatory changes", "setting": "[5]; [9]", "result": "less mucosal degenerative/inflammatory changes"}, {"measurement": "weight loss", "setting": "[5]; [9]", "result": "similar"}, {"measurement": "overall survival", "setting": "[5]; on Day +9, apraglutide 3.3 mg/kg", "result": 40, "unit": "%"}, {"measurement": "impact on cytarabine- or melphalan-induced immunosuppression", "setting": "WBC, NEU and LYMPH; combination with apraglutide", "result": "no negative impact"}, {"measurement": "degenerative intestinal changes (villi and crypt atrophy) caused by cytarabine or melphalan", "setting": "[6]; apraglutide co-administration, 3.3 mg/kg", "result": "reduced"}, {"measurement": "chemotherapy-induced weight loss", "setting": "[6]; apraglutide with cytarabine or melphalan", "result": "attenuated"}, {"measurement": "overall survival", "setting": "[6]; vs vehicle-only or chemotherapy-only groups", "result": "improved overall survival"}, {"measurement": "weight of duodenum, ileum and jejunum", "setting": "[6]; with apraglutide", "result": "increased in weight"}, {"measurement": "changes in the composition of bacterial species (Bacteroidetes, Firmicutes)", "setting": "[2]", "result": "the effect was reduced"}, {"measurement": "mice survived past Day 9", "setting": "[7]; 7.0 Gy + allogeneic transplant, apraglutide 3 mg/kg s.c.", "result": 40, "unit": "%"}, {"measurement": "median survival", "setting": "[7]; 7.0 Gy + allogeneic transplant, apraglutide 3 mg/kg s.c. Day −9 to +7", "result": 9, "unit": "days"}, {"measurement": "body weight of surviving mice beyond Day 9", "setting": "[7]; Group A", "result": "regained body weight"}, {"measurement": "length of the small intestine", "setting": "[7]; Groups A, B and C compared", "result": "no differences were observed"}, {"measurement": "weight loss, Group A vs Group B", "setting": "[7]; apraglutide 3 mg/kg s.c. vs vehicle, both TBI/BMT", "result": "No significant difference"}, {"measurement": "animal survival (Kaplan-Meier)", "setting": "[7]; apraglutide initiated before TBI/BMT vs TBI/BMT animals", "result": "enhanced survival; also recorded: significant difference relative to TBI/BMT animals"}, {"measurement": "mice with intestinal pathological score of 0", "setting": "[7]; score 0 least severe to 4 most severe, Group A, 10 mice", "result": "four out of out of ten"}]}, {"smiles": "N[C@@H](Cc1ccc(N(CCCl)CCCl)cc1)C(=O)O", "note": "[melphalan, Melphalan, reference compound]", "values": [{"measurement": "WBC and LYMPH vs vehicle", "setting": "WBC, NEU and LYMPH; melphalan on Day 9, with or without apraglutide", "result": "severe decreases"}]}]}
